The target in test [1] is T1, Free fatty acid receptor 1 (Homo sapiens, UniProt O14842). The experiment in a line: Agonist activity at human GPR40 transfected in HEK293 cells assessed as increase in intracellular calcium level incubated for 1 hr by Fluo-8 dye based fluorescence analysis. Type of test: functional, cell-based.
For test [2], the target named is Free fatty acid receptor 1 (Rattus norvegicus, UniProt Q8K3T4). Put plainly: Agonist activity at rat GPR40 transfected in HEK293 cells assessed as increase in intracellular calcium level incubated for 1 hr by Fluo-8 dye based fluorescence analysis. The test is classed as functional, cell-based.
For test [3], the system named is Mus musculus. Put plainly: In vivo agonist activity at GPR119 in C57 mouse assessed as induction of GLP-1 secretion at 30 mg/kg. Type of test: functional, organism-based.
Test [4] has as its system Mus musculus. The experiment in a line: In vivo agonist activity at GPR119 in GPR40 knock-out mouse assessed as induction of GLP-1 secretion at 30 mg/kg. Type of test: functional, organism-based.
For test [5], the system named is Rattus norvegicus. The experiment in a line: Anti-glycemic activity in fasted Sprague-Dawley ZDF rat assessed as increase in insulin secretion by measuring insulin level in plasma at 3 mg/kg administered 30 mins prior to glucose challenge measured after 140 mins by OGTT. The test is classed as functional. The conditions noted are these: time 170 min, 2.833 h.
Test [6] is filed under the species Mus musculus. Put plainly: Anti-glycemic activity in GPR40 knockout mouse assessed as reduction in blood glucose excursion measured for 120 mins by IPGTT. The test is classed as functional, organism-based.
The subject of test [7] is Rattus norvegicus. Put plainly: Anti-glycemic activity in fasted Sprague-Dawley ZDF rat assessed as reduction in post-prandial hyperglycemia by measuring AUC(0 to 2 hrs) for blood glucose at 3 mg/kg administered for 1 day and measured on day 1 by OGTT. Type of test: functional.
Test [8] has as its target T1, Free fatty acid receptor 1. The experiment in a line: Agonist activity at GPR40 in human islets assessed as induction of glucose-stimulated insulin secretion at 10 uM. The test is classed as tissue-based. The conditions noted are these: Pancreatic islet.
For test [9], the system named is Rattus norvegicus. Put plainly: Anti-glycemic activity in fasted Sprague-Dawley ZDF rat assessed as reduction in post-prandial hyperglycemia by measuring AUC(0 to 2 hrs) for blood glucose at 10 mg/kg administered for 1 day and measured on day 1 by OGTT. The test is classed as functional.
For test [10], the system named is Rattus norvegicus. The experiment in a line: Anti-glycemic activity in fasted Sprague-Dawley ZDF rat assessed as reduction in post-prandial hyperglycemia by measuring AUC(0 to 2 hrs) for blood glucose at 3 mg/kg administered daily for 8 days and measured on day 8 by OGTT. The test is classed as functional. The conditions noted are these: time 8 day.
For test [11], the system named is Rattus norvegicus. Put plainly: Anti-glycemic activity in fasted Sprague-Dawley ZDF rat assessed as reduction in post-prandial hyperglycemia by measuring AUC(0 to 2 hrs) for blood glucose at 10 mg/kg administered daily for 8 days and measured on day 8 by OGTT. Type of test: functional. The settings on record: time 8 day.
The species named for test [12] is Mus musculus. The experiment in a line: Anti-glycemic activity in C57 mouse assessed as reduction in blood glucose excursion measured for 120 mins by IPGTT. Type of test: functional, organism-based.
Test [13] relates to Mus musculus. Put plainly: In vivo agonist activity at GPR40 in C57 mouse assessed as induction of GLP1 secretion at 100 mg/kg. The test is classed as functional, organism-based.
Test [14] relates to Mus musculus. The experiment in a line: Induction of GLP-1 secretion in GPR40 knock-out mouse at 100 mg/kg. Type of test: functional, organism-based.
For test [15], the target named is Free fatty acid receptor 1 (Rattus norvegicus) (UniProt Q8K3T4). Put plainly: Agonist activity at GPR40 in rat INS1 (832/13) cells assessed as induction of glucose-stimulated insulin secretion in presence of 10 mM glucose. Type of test: cell-based.
The subject of test [16] is Rattus norvegicus. The experiment in a line: Anti-glycemic activity in fasted Sprague-Dawley ZDF rat assessed as increase in insulin secretion by measuring insulin level in plasma at 10 mg/kg administered 30 mins prior to glucose challenge measured after 140 mins by OGTT. Type of test: functional. The settings on record: time 170 min, 2.833 h.

pEC50: −log10 of the molar value. Calls of active or inactive are those of the source. The calls are words filed in the database; no cut-off is given here.

T1 sequence (O14842 whole entry): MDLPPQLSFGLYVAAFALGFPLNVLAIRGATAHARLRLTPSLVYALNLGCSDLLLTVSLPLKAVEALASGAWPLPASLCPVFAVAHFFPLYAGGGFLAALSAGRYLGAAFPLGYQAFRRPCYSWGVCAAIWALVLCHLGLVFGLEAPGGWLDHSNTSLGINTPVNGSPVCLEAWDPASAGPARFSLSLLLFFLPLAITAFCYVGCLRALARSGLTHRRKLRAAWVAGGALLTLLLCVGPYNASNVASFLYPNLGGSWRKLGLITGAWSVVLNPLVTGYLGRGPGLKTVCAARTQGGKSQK
Free fatty acid receptor 1 (Rattus norvegicus, UniProt Q8K3T4), sequence (Q8K3T4 whole entry): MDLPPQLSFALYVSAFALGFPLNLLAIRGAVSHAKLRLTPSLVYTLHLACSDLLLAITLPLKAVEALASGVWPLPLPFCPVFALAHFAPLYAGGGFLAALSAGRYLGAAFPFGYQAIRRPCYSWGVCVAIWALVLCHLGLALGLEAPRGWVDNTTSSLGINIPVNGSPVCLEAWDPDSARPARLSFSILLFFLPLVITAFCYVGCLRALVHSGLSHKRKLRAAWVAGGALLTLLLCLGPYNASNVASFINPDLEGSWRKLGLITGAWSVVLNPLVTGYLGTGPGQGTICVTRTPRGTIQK
Free fatty acid receptor 1 (Rattus norvegicus), sequence (Q8K3T4 whole entry): as above

`COc1ccc(F)c(-c2ncc(COc3cccc([C@@H](CC(=O)O)C4CC4)c3)nc2-c2cc(C)cc(C)c2)c1`: in [1], the pEC50 is 8.12.
Regarding `COc1ccc(F)c(-c2ncc(COc3cccc([C@@H](CC(=O)O)C4CC4)c3)cc2C2=CCCC2(C)C)c1`, the pEC50 was 7.19 in [2] and 7.67 in test [1].
For `CC(C)OC(=O)N1CCC(Oc2ncnc3c2CCN3c2ccc(S(C)(=O)=O)cc2F)CC1`, the outcome in the test with Mus musculus [3] and in the test on Mus musculus [4] was Active.
Consider `COc1cc(-c2ncc(COc3cccc([C@@H](CC(=O)O)C4CC4)c3)nc2C2=CCCC2(C)C)c(F)cn1`, for which the negative-log EC50 (pEC50) in test [1] is 7.96.
As for `COc1ccc(F)c(-c2ncc(COc3cccc([C@@H](CC(=O)O)C4CC4)c3)nc2CC(C)(C)C)c1`, the pEC50 in test [1] (hek293) was 8.70.
For the compound `COc1ccc(F)c(-c2ccc(COc3cccc([C@@H](CC(=O)O)C4CC4)c3)nc2C2=CCCC2(C)C)c1`, the pEC50 in test [2] was 7.35; in test [1] it was 8.03.
Take `Cc1cc(OCCCS(C)(=O)=O)cc(C)c1-c1cccc(COc2ccc3c(c2)OC[C@H]3CC(=O)O)c1` [FASIGLIFAM]: the Activity was determined as 4020 ng/mL in the test with Rattus norvegicus [5]; 12194 ng/mL.hr in the test with Rattus norvegicus [7]; 59293 ng/mL.hr in the test with Rattus norvegicus [9]; 20561 ng/mL.hr in the test with Rattus norvegicus [10]; 135502 ng/mL.hr with Rattus norvegicus [11]; 19250 ng/mL with Rattus norvegicus [16]. Further, the outcome (in the test listed under Mus musculus [6]; in [8]; in the test on Mus musculus [13]; in the test with Mus musculus [14]; in test [15] (INS-1 832/13)) was inactive. Also, in the test filed under Mus musculus [12], the outcome was Active.
Consider `COc1ccc(F)c(-c2cnc(COc3cccc([C@@H](CC(=O)O)C4CC4)c3)nc2C2=CCCC2(C)C)c1`, for which the pEC50 in [2] was 7.15; in test [1] it was 7.91.
In the case of `COc1ccc(F)c(-c2ncc(COc3cccc([C@@H](CC(=O)O)C4CC4)c3)nc2N2CC3(CCC3)C2)c1`, the negative logarithm of the EC50 (pEC50) in [1] is 8.35.
With `COc1ccc(F)c(-c2ncc(COc3cccc([C@@H](CC(=O)O)C4CC4)c3)nc2C2=CCCC2(C)C)c1`, the negative logarithm of the EC50 (pEC50) in test [2] is 6.70.
For the compound `COc1ccc(F)c(-c2ncc(COc3cccc([C@@H](CC(=O)O)C4CC4)c3)nc2OCC(C)C)c1`, the pEC50 in [1] was 8.02.
On the same count and under the same terms, then `COc1ccc(F)c(-c2ncc(COc3cccc([C@@H](CC(=O)O)C4CC4)c3)nc2C=C(C)C)c1`, with 8.03.
As for `COc1ccc(Cl)cc1C(=O)NCCc1ccc(S(=O)(=O)NC(=O)NC2CCCCC2)cc1`, the result in the test listed under Mus musculus [12] was Active.
In the case of `COc1ccc(F)c(-c2ccc(COc3cccc([C@@H](CC(=O)O)C4CC4)c3)cc2C2=CCCC2(C)C)c1`, the Activity entry was “Active” in [8] (filed as agonist) and “Active” in test [15] (INS-1 832/13, filed as agonist). The values for the pEC50 in [2] and in [1] were 7.94 and 8.46, respectively.
On to `CCCCc1nc(COc2cccc([C@@H](CC(=O)O)C3CC3)c2)cnc1-c1cc(OC)ccc1F`, for which the pEC50 in [2] is 7.55; in test [1], 8.60.
The like results for `COc1ccc(F)c(-c2cnc(COc3cccc([C@@H](CC(=O)O)C4CC4)c3)cc2C2=CCCC2(C)C)c1` were, in that order, 7.34 and 7.96.

The record behind these values is ChEMBL document CHEMBL4673209, “Discovery of a novel potent GPR40 full agonist” (Bioorg Med Chem Lett, 2018).
